Measurements published in patent US12570612B2, “Substituted nitrogen heterocyclic compound and anesthetic effect thereof” (priority 2019, dated 2026).
Entries after “also recorded” stand apart in the source; their conditions may differ.

Legend:
[1] = test system: Sprague-Dawley rats; assay: Pharmacological characteristics at equivalent doses (2ED50), Group A compounds; format: in vivo; set-up: Sedation duration: unit not given here; details: 2ED50, tail vein; for Types and incidence of adverse reactions: (animals affected/animals)
[2] = test system: H295R cell line; assay: Adrenocortical function in vitro test: secretion of cortisol and corticosterone, Group A compounds; format: cell-based; details: H295 cells; for EC50: 0.1-10000 nM, HPLC-MS/MS
[3] = test system: Sprague-Dawley rats; assay: animal or person; details: for Approximate therapeutic index / Minimal lethal dose: rats
Protocol: (§1) Adult male Sprague-Dawley rats (250-300 g) were selected for the experiment. […] The anesthesia effects of the compounds were assessed in rats using a LORR assay and a period >30 s was considered as an indicator of general anesthesia.

[4] = test system: H295R cell line; assay: Adrenocortical function in vitro test: secretion of cortisol and corticosterone, Group B compounds; format: cell-based; details: H295R cells; for EC50: 0.1-10000 nM, HPLC-MS/MS
[5] = test system: Sprague-Dawley rats; assay: animal or person; details: for ED50: LORR in rats, tail vein, brackets = 95% confidence limit; for Approximate therapeutic index / Minimal lethal dose: rats
Protocol: as §1

[6] = Homo sapiens, read-out: EC50 (Corticosterone)
[7] = Homo sapiens, read-out: EC50 (Cortisol)
[8] = read-out: EC50 (Corticosterone)
[9] = Homo sapiens, NCI-H295R, read-out: EC50 (Corticosterone)
[10] = Homo sapiens, NCI-H295R, read-out: EC50 (Cortisol)

| SMILES | Corticosterone as an indicator to determine the presence of inhibition [4] | Cortisol as an indicator to determine the presence of inhibition [4] | EC50 [4, 9] [µM] | EC50 [4, 10] [µM] | ED50 ([5]; Rattus norvegicus) [mg/kg] | Approximate therapeutic index [5] | Minimal lethal dose [5] [mg/kg] | also measured |
| --- | --- | --- | --- | --- | --- | --- | --- | --- |
| CCOC(=O)c1ccnn1[C@H](C)c1ccccc1 [Compound A1] | – | – | – | – | – | – | – | Onset time [1]: 0.56 ± 0.26 min; Righting reflex duration [1]: 2.24 ± 1.29 min; Corticosterone as an indicator to determine the presence of inhibition [2]: 0; Cortisol as an indicator to determine the presence of inhibition [2]: 0; EC50 [2, 6]: > 1 µM; EC50 [2, 7]: > 1 µM; ED50 ([3]; Rattus norvegicus): 1 to 2 mg/kg; Approximate therapeutic index [3]: >8; Minimal lethal dose [3]: >16 mg/kg |
| C[C@H](c1ccccc1)n1nccc1C(=O)OCC1CC1 [Compound A3] | – | – | – | – | – | – | – | Onset time [1]: 0.13 ± 0.04 min; Righting reflex duration [1]: 2.73 ± 1.08 min; Sedation duration [1]: 5.76 ± 0.80; Types and incidence of adverse reactions [1]: Red urine(8/8), Hindlimb; also recorded: rigidity (1/8); Corticosterone as an indicator to determine the presence of inhibition [2]: 0; Cortisol as an indicator to determine the presence of inhibition [2]: 0; EC50 [2, 8]: > 1 µM; EC50 ([2]; read-out: EC50 (Cortisol)): > 1 µM; ED50 ([3]; LORR in rats, tail vein, brackets = 95% confidence limit): C (C indicates that the measured ED50 is in the range of 1.00-2.00 mg/kg (excluding 1.00 mg/kg, including 2.00 mg/kg)); Approximate therapeutic index [3]: >6; Minimal lethal dose [3]: >8 mg/kg |
| C[C@H](c1ccccc1)n1nccc1C(=O)OC1CSC1 [Compound A6] | – | – | – | – | – | – | – | Onset time [1]: 0.38 ± 0.12 min; Righting reflex duration [1]: 3.81 ± 2.17 min; Types and incidence of adverse reactions [1]: Red urine(8/8), Facial; also recorded: muscle; also recorded: twitching(2/8), Hindlimb; also recorded: rigidity (1/8); Corticosterone as an indicator to determine the presence of inhibition [2]: 0; Cortisol as an indicator to determine the presence of inhibition [2]: 0; EC50 [2, 6]: > 1 µM; EC50 [2, 7]: > 1 µM; ED50 ([3]; Rattus norvegicus): 2 to 6 mg/kg; Approximate therapeutic index [3]: >5; Minimal lethal dose [3]: >13 mg/kg |
| CC(=O)C1(OC(=O)c2ccnn2[C@H](C)c2ccccc2)COC1 [Compound A8] | – | – | – | – | – | – | – | Onset time [1]: 0.57 ± 0.20 min; Righting reflex duration [1]: 2.70 ± 2.52 min; Types and incidence of adverse reactions [1]: Red urine(8/8),; also recorded: Tremor(2/8),; also recorded: Euphoria(1/8); Corticosterone as an indicator to determine the presence of inhibition [2]: 0; Cortisol as an indicator to determine the presence of inhibition [2]: 0; EC50 [2, 6]: > 1 µM; EC50 [2, 7]: > 1 µM; ED50 ([3]; Rattus norvegicus): 1 to 2 mg/kg; Approximate therapeutic index [3]: >7; Minimal lethal dose [3]: >9 mg/kg |
| CC#CC1(OC(=O)c2ccnn2[C@H](C)c2ccccc2)COC1 [Compound A10] | – | – | – | – | – | – | – | Onset time [1]: 0.43 ± 0.22 min; Righting reflex duration [1]: 1.32 ± 0.61 min; Types and incidence of adverse reactions [1]: Red urine(8/8),; also recorded: Tremor(3/8), Forelimb; also recorded: clonic; also recorded: convulsion(2/8), Hindlimb; also recorded: rigidity(2/8), Facial; also recorded: muscle twitching(2/8),; also recorded: Nod(1/8); Corticosterone as an indicator to determine the presence of inhibition [2]: 0; Cortisol as an indicator to determine the presence of inhibition [2]: 0; EC50 [2, 6]: > 1 µM; EC50 [2, 7]: > 1 µM; ED50 ([3]; Rattus norvegicus): 2 to 6 mg/kg; Approximate therapeutic index [3]: >5; Minimal lethal dose [3]: >12 mg/kg |
| C[C@H](c1ccccc1)n1nnc(Br)c1C(=O)OC1CC1 [Compound B116] | 0 | 0 | > 3 | > 3 | 1 to 2 | >9 | >12 | – |
| CCSC(=O)c1c(Br)nnn1[C@H](C)c1ccccc1 [Compound B120] | 0 | 0 | > 1 | > 1 | 0.5 to 1 | >21 | >15 | – |
| COC(=O)C1(OC(=O)c2c(Br)nnn2[C@H](C)c2ccccc2)CC1 [Compound B121] | 0 | 0 | > 1 | > 1 | 2 to 10 | >3 | >20 | – |
| CCOC(=O)c1c(I)nnn1[C@H](C)c1ccccc1 [Compound B127] | 0 | 0 | > 3 | > 3 | 0.5 to 1 | >23 | >16 | – |
| C[C@H](c1ccccc1)n1nnc(I)c1C(=O)OC1CCC1 [Compound B132] | 0 | 0 | > 1 | > 1 | 0.5 to 1 | >16 | >12 | – |
| C[C@H](c1ccccc1)n1nnc(I)c1C(=O)OCC1CC1 [Compound B133] | 0 | 0 | > 1 | > 1 | 0.5 to 1 | >20 | >14 | – |
| C=CCOC(=O)c1c(I)nnn1[C@H](C)c1ccccc1 [Compound B136] | 0 | 0 | – | – | – | >6 | >18 | EC50 [4, 8]: > 1 µM; EC50 ([4]; read-out: EC50 (Cortisol)): > 1 µM; ED50 [5]: D (D indicates that the measured ED50 is in the range of 2.00-10.00 mg/kg (excluding 2.00 mg/kg, including 10.00 mg/kg)) |
| C=C=CC1(OC(=O)c2c(I)nnn2[C@H](C)c2ccccc2)CCCCC1 [Compound B137] | 0 | 0 | > 1 | > 1 | 1 to 2 | >9 | >12 | – |
| C[C@H](c1ccccc1)n1nnc(I)c1C(=O)OC1(C)COC1 [Compound B140] | 0 | 0 | > 1 | > 1 | 10 to 20 | >2 | >30 | – |
| C[C@H](c1ccccc1)n1nnc(I)c1C(=O)OC1CC1 [Compound B144] | 0 | 0 | > 1 | > 1 | 10 to 20 | >2 | >24 | – |
| CCOC(=O)c1c(C(F)(F)F)nnn1[C@H](C)c1ccccc1 [Compound B145] | 0 | 0 | > 3 | > 3 | 2 to 10 | >4 | >18 | – |
| CCOC(=O)c1nnn([C@H](C)c2ccccc2)c1C(F)(F)F [Compound B146] | 0 | 0 | – | – | – | >8 | >14 | EC50 [4, 8]: > 3 µM; EC50 ([4]; read-out: EC50 (Cortisol)): > 3 µM; ED50 [5]: C (C indicates that the measured ED50 is in the range of 1.00-2.00 mg/kg (excluding 1.00 mg/kg, including 2.00 mg/kg)) |
